Source: patent publication US9981972B2, “N-hydroxy bicyclic hydantoin carbamates as tools for identification of serine hydrolase targets” (ABIDE THERAPEUTICS, INC., priority 2014, dated 2018)
Entries after “also recorded” stand apart in the source; their conditions may differ.

Key:
LYPLA1 = target: T1, LYPLA1 (Mus musculus, UniProt P97823); assay: Gel-based competitive ABPP in vitro, mouse brain membrane proteome; type: biochemical; details: 30 min, one replicate; for inhibition at 0.1 µM: 0.1 μM compound, read-out: LYPLA1 % INH 0.1 μM; for inhibition at 1 µM: 1 μM compound, read-out: LYPLA1 % INH 1 μM; for inhibition at 10 µM: 10 μM compound, read-out: LYPLA1 % INH 10 μM; for inhibition at 100 µM: 100 μM compound, read-out: LYPLA1 % INH 100 μM
T1 construct: a complex proteome endogenously expressing LYPLA1/2 was incubated with test compound; from tissue; host or cells: mouse brain, membrane fraction
T1 sequence (P97823 whole entry): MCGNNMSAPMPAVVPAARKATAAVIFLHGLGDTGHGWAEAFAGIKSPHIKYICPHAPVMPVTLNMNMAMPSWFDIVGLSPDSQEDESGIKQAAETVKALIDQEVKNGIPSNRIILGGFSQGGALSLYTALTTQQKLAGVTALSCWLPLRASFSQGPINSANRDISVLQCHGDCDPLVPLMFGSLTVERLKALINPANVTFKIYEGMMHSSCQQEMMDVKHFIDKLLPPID
Method: (§1) Assay Overview: The purpose of this assay was to determine whether test compounds can inhibit LYPLA1 and LYPLA2 in a complex proteomic lysate and to assess anti-target inhibition using a competitive activity-based proteomic profiling (ABPP) assay. In this assay, a complex proteome endogenously expressing LYPLA1/2 was incubated with test compound followed by reaction with a rhodamine-conjugated fluorophosphonate (FP-Rh) serine-hydrolase specific activity-based probe. The reaction products were separated by SDS-PAGE and visualized in-gel using a flatbed fluorescence scanner. The percentage activity remaining was determined by measuring the integrated optical density of the bands. […] Percent inhibition was calculated relative to a DMSO (no compound) control.
(§2) Protocol Summary: Mouse brain membrane proteome (50 μL reaction volume, 1 mg/mL in DPBS) was treated with 0.1-100 μM test compound (1 μL of a 50× stock in DMSO) for 30 minutes at 37° C. FP-Rh (1 μL of 50× stock in DMSO, Thermo #88318) was added to a final concentration of 2 μM. The reactions were incubated for 30 minutes at 25° C., quenched with 16 μL 4×SDS-PAGE loading buffer (reducing), separated by SDS-PAGE and visualized by in-gel fluorescent scanning. The percentage activity remaining was determined by measuring the integrated optical density of the bands relative to a DMSO-only (no compound) control. Assay Cutoff: Compounds with ≥50% inhibition of targets at 1 μM test compound concentration were considered active.
(§3) N-Hydroxy bicyclic hydantoin carbamates (Compounds 1-20) listed in Table 1 were subjected to gel-based competitive ABPP screening to assess SH reactivity against more than 20 FP-sensitive SHs visible by 1D SDS-PAGE separation and fluorescent detection in the mouse brain proteome (see FIG. 1). […] Compound treatment ([…], 30 minutes) was followed by labeling with SH-specific ABPP probe FP-Rh (2 μM, 30 minutes), 1D-SDS-PAGE, and in-gel fluorescent visualization of FP-labeled proteins. Assignment of LYPLA1/2 bands was based on correlation of molecular weights, expression and inhibition profiles with LC-MS/MS data and recombinant enzyme expression. Proteins were listed as anti-targets if at least 50% inhibition was observed as quantified relative to the DMSO control.
(§4) Compounds 1-20 were subjected to gel-based competitive ABPP profiling to assess potency and selectivity against several dozen FP-sensitive SHs in the mouse brain membrane proteome, which endogenously expresses LYPLA1 and LYPLA2, as well a diversity of potential SH anti-targets. Compounds were tested at 100 μM, 10 μM, 1 μM, and/or 0.1 μM compound concentration.

LYPLA2 = target: T2, LYPLA2 (Mus musculus, UniProt Q9WTL7); assay: as above; type: biochemical; details: 30 min, one replicate; for inhibition at 0.1 µM: 0.1 μM compound, read-out: LYPLA2 % INH 0.1 μM; for inhibition at 1 µM: 1 μM compound, read-out: LYPLA2 % INH 1 μM; for inhibition at 10 µM: 10 μM compound, read-out: LYPLA2 % INH 10 μM; for inhibition at 100 µM: 100 μM compound, read-out: LYPLA2 % INH 100 μM
T2 construct: a complex proteome endogenously expressing LYPLA1/2 was incubated with test compound; from tissue; host or cells: mouse brain, membrane fraction
T2 sequence (Q9WTL7 whole entry): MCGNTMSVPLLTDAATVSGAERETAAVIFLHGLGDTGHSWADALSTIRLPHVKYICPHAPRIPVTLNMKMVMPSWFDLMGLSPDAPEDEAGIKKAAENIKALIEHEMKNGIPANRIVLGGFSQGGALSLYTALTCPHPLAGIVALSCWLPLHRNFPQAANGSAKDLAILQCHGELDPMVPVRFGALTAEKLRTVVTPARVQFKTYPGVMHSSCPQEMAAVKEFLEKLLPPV
Method: as §1, §2, §3, §4

[1] = test system: FP-sensitive SHs in the mouse brain membrane proteome; assay: Gel-based competitive ABPP in vitro, mouse brain membrane proteome, anti-targets; type: biochemical; details: for Anti-target(s) 0.1 μM: SHs with at least 50% inhibition at 0.1 μM compound; for Anti-target(s) 1 μM: SHs with at least 50% inhibition at 1 μM compound; for Anti-target(s) 10 μM: SHs with at least 50% inhibition at 10 μM compound; for Anti-target(s) 100 μM: SHs with at least 50% inhibition at 100 μM compound
Method: as §1, §2, §3, §4

human LYPLA2 = target: T3, human LYPLA2 (Homo sapiens, UniProt O95372); assay: IC50 by gel-based competitive ABPP in vitro, soluble HeLa cell proteome; type: biochemical; details: human LYPLA isoform, three replicates; Table 2 prints no unit, nM; read-out: LYPLA2 IC50
T3 construct: endogenous human LYPLA1/2 in a HeLa soluble proteome; endogenous in cells; host or cells: HeLa (soluble proteome in vitro; cultured cells in situ)
T3 sequence (O95372 whole entry, canonical isoform): as the sequence (Q9WTL7 whole entry) above, with N154A, T193S counted along it
Method: (§5) Assay Overview: The purpose of this assay was to determine IC50 values of powder samples of test compounds for enzyme of interest activity, and anti-targets in a complex proteomic lysate using a gel-based competitive ABPP assay. In this assay, a complex proteome was incubated with test compound followed by reaction with FP-Rh and SDS-PAGE analysis as described above.
(§6) Protocol Summary: Soluble HeLa cell proteome (50 μL reaction volume, 1 mg/mL in DPBS) or mouse brain membrane proteome (50 μL reaction volume, 1 mg/mL in DPBS) was treated with varying concentrations of test compound (1 μL of a 50× stock in DMSO) for 30 minutes at 37° C. FP-Rh (1 μL of 50× stock in DMSO) was added to a final concentration of 2 μM. The reaction was incubated for 30 minutes at 25° C., quenched with 16 μL 4×SDS-PAGE loading buffer (reducing), separated by SDS-PAGE and visualized by in-gel fluorescent scanning. The percentage activity remaining was determined by measuring the integrated optical density of the enzymes of interest, and anti-target bands relative to a DMSO-only (no compound) control. IC50 values were determined from dose-response curves from three replicates at each inhibitor concentration: 1, 10, 100, 1000, 10000 nM and 0.01, 0.1, 1, 10, 100, 1000, 10000, 50000, and 100000 nM.

human LYPLA1 = target: T4, human LYPLA1 (Homo sapiens, UniProt O75608); assay: as above; type: biochemical; details: human LYPLA isoform, three replicates; Table 2 prints no unit, nM; read-out: LYPLA1 IC50
T4 construct: endogenous human LYPLA1/2 in a HeLa soluble proteome; endogenous in cells; host or cells: HeLa (soluble proteome in vitro; cultured cells in situ)
T4 sequence (O75608 whole entry, canonical isoform): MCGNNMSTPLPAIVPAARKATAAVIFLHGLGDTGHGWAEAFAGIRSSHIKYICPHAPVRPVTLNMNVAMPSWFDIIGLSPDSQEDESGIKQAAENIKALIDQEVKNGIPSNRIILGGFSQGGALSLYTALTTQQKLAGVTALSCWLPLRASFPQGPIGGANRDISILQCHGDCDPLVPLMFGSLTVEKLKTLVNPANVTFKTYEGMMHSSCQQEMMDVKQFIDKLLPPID
Method: as §5, §6

PPT1 = target: T5, PPT1 (Homo sapiens, UniProt P50897); assay: In situ inhibition of hPPT1 in transfected HEK293T cells, competitive ABPP with Compound 39 probe; type: cell-based; design: expressed in transfected cells; host or cells: HEK293T; details: 2 μM, hPPT1-transfected HEK293T cells, in situ
T5 sequence (P50897 28-306): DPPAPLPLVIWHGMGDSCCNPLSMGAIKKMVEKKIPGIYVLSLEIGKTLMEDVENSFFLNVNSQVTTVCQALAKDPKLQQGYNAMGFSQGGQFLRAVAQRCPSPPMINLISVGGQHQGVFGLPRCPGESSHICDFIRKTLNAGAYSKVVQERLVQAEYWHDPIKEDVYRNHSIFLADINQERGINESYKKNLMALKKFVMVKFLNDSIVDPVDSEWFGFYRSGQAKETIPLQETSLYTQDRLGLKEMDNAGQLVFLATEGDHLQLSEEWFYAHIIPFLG
Method: HEK293T cells were seeded at 2×10^5 per well on 6 well plates and grown for 48 h. They were then transfected with mABHD3 (pCMV-Sport6), hABHD4 (pcDNA3.1/myc-his), hPPT1 (pCMV6-XL5), or hPPT1 S115A (pCMV6-XL5), by incubating 0.5 μg of DNA with 3 μL of PEI MAX (1 mg/mL, Polysciences, Inc) in serum-free DMEM for 30 min, then adding them to cells. After 48 h cells were either treated with compound in situ, as described above, or harvested for in vitro studies. The […] PPT1 mutation was introduced using QuikChange II Site Directed Mutagenesis Kit (Agilent) with the following primers: […]
In situ inhibitor treatments of human cell lines were performed as described previously (Hsu et al., J Med Chem 56, 8270-8279, 2012). Briefly, PC3 or transfected HEK293T cells were grown to confluency in serum-containing media (RPMI or DMEM, respectively). The culture media was then removed and replaced with fresh media containing DMSO or inhibitor at the desired concentration and incubated for 4 hours in a tissue culture incubator (37° C., 5% CO2). Cells were then washed with PBS, harvested, washed with PBS once more, and lysed with a probe sonicator.
This possibility was explored by treating HEK293T cells transfected with human PPT1 (hPPT1) with Compound 37 (5 μM, 4 h pre-treatment) or DMSO followed by cell lysis and treatment with Compound 39 (5 μM, 1 h). A strong, but diffuse Compound 37-sensitive, Compound 39-labeled protein band was detected by gel-based ABPP in hPPT1-transfected, but not mock-transfected cell lysates (see FIG. 14), and this diffuse signal was compressed to a tight, faster-migrating band matching the predicted molecular weight of PPT1 following treatment with the glycosidase PNGaseF (see FIG. 14). Western blotting with an anti-PPT1 antibody confirmed a similar migration pattern for hPPT1 protein in transfected cell lysates (see FIG. 14, bottom panel).
A structurally diverse panel of N-hydroxy bicyclic hydantoin carbamates were assayed at 2 or 0.2 μM for in situ inhibition of hPPT1 in transfected HEK293T cells.

Row | Structure (SMILES) | inhibition at 0.1 µM (LYPLA1) [%] | inhibition at 1 µM (LYPLA1) [%] | inhibition at 10 µM (LYPLA1) [%] | inhibition at 100 µM (LYPLA1) [%] | inhibition at 0.1 µM (LYPLA2) [%] | inhibition at 1 µM (LYPLA2) [%] | inhibition at 10 µM (LYPLA2) [%] | inhibition at 100 µM (LYPLA2) [%] | Anti-target(s) 0.1 μM [1] | Anti-target(s) 1 μM [1] | Anti-target(s) 10 μM [1] | Anti-target(s) 100 μM [1] | IC50 (human LYPLA2) [nM] | IC50 (human LYPLA1) [nM] | hPPT1 (in situ), % @ 2 μM (PPT1) [% @ 2 μM]
1 | O=C(ON1C(=O)C2CN(C(=O)c3ccc(Br)cc3)CCN2C1=O)N1CCC(CCc2ccc(Cl)cc2)CC1 (stereo not shown) [Compound 7, 7-(4-bromobenzoyl)-1,3-dioxohexahydroimidazo[1,5-a]pyrazin-2(3H)-yl 4-(4-chlorophenethyl)piperidine-1-carboxylate] | 0 | 80 | 95 | 100 | 0 | 80 | 95 | 100 | ABHD6 | ABHD6 | FAAH,; also recorded: ABHD12,; also recorded: ABHD6 | FAAH,; also recorded: ABHD12,; also recorded: ABHD4,; also recorded: MAGL,; also recorded: ABHD6 | 726 | 306 | –
2 | COc1ccc(N2CCN(C(=O)ON3C(=O)C4CN(CC5CCN(C(=O)OC(C)(C)C)CC5)CCN4C3=O)CC2)cc1 (stereo not shown) [Compound 24, 7-((1-(tert-butoxycarbonyl)piperidin-4-yl)methyl)-1,3-dioxohexahydroimidazo[1,5-a]pyrazin-2(3H)-yl 4-(4-methoxyphenyl)piperazine-1-carboxylate] | – | – | – | – | – | – | – | – | – | – | – | – | – | – | 100
3 | O=C(ON1C(=O)C2CN(C(=O)N3CCCC3)CCN2C1=O)N1CCC(CCc2ccc(Cl)cc2)CC1 (stereo not shown) [Compound 3, 1,3-dioxo-7-(pyrrolidine-1-carbonyl)hexahydroimidazo[1,5-a]pyrazin-2(3H)-yl 4-(4-chlorophenethyl)piperidine-1-carboxylate] | 50 | 100 | 100 | 100 | 50 | 100 | 100 | 100 | ABHD6 | FAAH,; also recorded: ABHD6 | FAAH,; also recorded: ABHD6 | FAAH,; also recorded: ABHD12,; also recorded: ABHD4,; also recorded: MAGL,; also recorded: ABHD6 | 384 | 225 | –
4 | CC(C)(C)CC(=O)N1CCN2C(=O)N(OC(=O)N3CCC(CCc4ccc(Cl)cc4)CC3)C(=O)C2C1 (stereo not shown) [Compound 4, 7-(3,3-dimethylbutanoyl)-1,3-dioxohexahydroimidazo[1,5-a]pyrazin-2(3H)-yl 4-(4-chlorophenethyl)piperidine-1-carboxylate] | 80 | 100 | 100 | 100 | 80 | 100 | 100 | 100 | ABHD6 | FAAH,; also recorded: ABHD6 | FAAH,; also recorded: ABHD12,; also recorded: MAGL,; also recorded: ABHD6 | FAAH,; also recorded: ABHD12,; also recorded: ABHD4,; also recorded: MAGL,; also recorded: ABHD6 | 217 | 92 | –
